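Cultured in 96-well plates, cells were exposed to test compound for 48 hours across five concentrations. GI50 = concentration required for 50% inhibition of growth. TGI marks complete inhibition of growth.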
Test system: MDA-MB-468 breast
Test: NCI tumour cell line growth inhibition, 48 h

SMILES | GI50 | TGI
CC(C)(C)c1ccc([I+]c2ccc(C(C)(C)C)cc2)cc1 | 0.4 µM | 2.28 µM
Oc1ccc(CSc2nnc(-c3ccccc3)o2)c2cccnc12 | 2.21 µM | > 100 µM
COc1ccc(-c2n[nH]nc2-c2csc3ccccc23)cc1OC | 0.631 µM | 10.7 µM
COCCOC(=O)C1=C(C)NC2=C(C(=O)CC(c3ccccc3OC)C2)C1c1cccc(O)c1 (centres undefined) | 3.92 µM | 21.9 µM
CS(=O)(=O)CCNCc1ccc(-c2ccc3ncnc(Nc4ccc(OCc5cccc(C(F)(F)F)c5)cc4)c3c2)o1 | 3.39 µM | 8.6 µM
COc1cc(CSc2nc3ccc(C)cc3c(=O)n2Cc2ccccc2)cc(OC)c1OC | 0.479 µM | 3.01 µM
Oc1ccccc1-c1nnc(SCc2ccc(O)c3ncccc23)n1-c1ccccc1 | 0.349 µM | 9.29 µM
Cn1c(COC(=O)N2CCCCC2)nc2c(N3CCOCC3)nc(-c3ccccc3)nc21 | 0.656 µM | 2.19 µM
CCCN(CCC)c1ccc(CO)c(C)c1 | 0.962 µM | 4.32 µM
COc1ccc2[nH]cc(-c3nc(-c4cn(C)c5ccncc45)cs3)c2c1 | 1.97 µM | 3.77 µM
Cn1c(=O)cc2c3c(c(NCCCO)ccc31)C(=O)c1ccccc1-2 | 2.11 µM | 9.66 µM
COc1ccc2c(c1)c(C1(c3cn(C)c4ccc(OC)cc34)C(=O)Nc3ccc(F)cc31)cn2C | 3.4 µM | 41.4 µM
COc1cccc(/C=N\Nc2ccc([N+](=O)[O-])cn2)c1O | 2.27 µM | 6.64 µM
C#C[C@]1(O)CC[C@H]2[C@@H]3CC=C4c5sc(N=C(N)N)nc5CC[C@]4(C)[C@H]3CC[C@@]21C | 0.741 µM | 2.2 µM
CN1CCN(c2ccc3nc(-c4cc(C(C)(C)C)c(O)c(C(C)(C)C)c4)[nH]c3c2)CC1 | 1.92 µM | 3.76 µM
O=C(COc1cccc(/C=C2\COc3ccccc3C2=O)c1)Nc1nccs1 | 1.91 µM | 3.54 µM

SMILES | GI50 | TGI
Nc1cc(-c2ccccc2)ccc1O | 42.3 µM | > 100 µM
COc1ccc(O)c(C(=O)c2ccc(C(=O)O[C@@H]3CCCNC[C@H]3NC(=O)c3ccncc3)cc2)c1F | 0.511 µM | > 23.7 µM
O=C1OC(c2ccc(O)c(Cl)c2)(c2ccc(O)c(Cl)c2)c2ccc(Br)c3cccc1c23 (tested in a mixture with another compound) | 14.6 µM | 34.1 µM
COc1cnc2c(c1)C(=O)c1c-2n(CCCn2ccnc2)c(=O)c2cc(Cl)ccc12 | 0.0252 µM | 0.0855 µM
CC1(C)N=C(N)N=C(N)N1c1ccc(F)c(C(F)(F)F)c1 | 1.47 µM | > 100 µM
O=C(Nc1cc(C(F)(F)F)cc(C(F)(F)F)c1)Nc1ccc2oc(=O)ccc2c1 | 0.641 µM | 4.41 µM
C#C[C@]1(O)CC[C@H]2[C@@H]3CC=C4c5sc(-c6ccc(F)cn6)nc5CC[C@]4(C)[C@H]3CC[C@@]21C | 2.99 µM | 13.7 µM
CN1C(=O)CNC(=O)[C@H](NC(=O)c2nc3ccccc3cc2O)CSSC[C@H]1C(=O)NCCc1nc2ccccc2cc1O | 1.32 µM | 11 µM
CCC(Sc1nnc2c3ccccc3n(CC)c2n1)C(=O)Nc1ccccc1OC (centres undefined) | 1.37 µM | 4.23 µM
CCCCC(=O)N/N=C/c1cc(I)cc(I)c1O | 2.85 µM | 18.4 µM
CCN(CC)c1ccc2c(c1)Oc1nc(N)c(C#N)c(N)c1C2Sc1ccc(SC)cc1 (centres undefined) | 1.94 µM | 3.64 µM
C(=C1c2ccccc2-c2ccccc21)c1ccccn1 | 2.64 µM | 14.7 µM
Brc1ccc([I+]c2ccc(Br)cc2)cc1 | 0.541 µM | 3.52 µM
CCC[C@H](N[C@@H]1CCc2cc(F)cc(F)c2C1)C(=O)Nc1cn(C(C)(C)CNCC(C)(C)C)cn1 | 3.48 µM | 29.7 µM
CCCCCCCCCCCCCCCc1cc(O)ccc1N | 2.04 µM | 6.3 µM
COC(CCP(=O)(c1ccccc1)c1ccccc1)(C(=O)c1ccccc1)c1ccccc1 (centres undefined) | 2.05 µM | 11.7 µM

— PubChem BioAssay (NCI)
